Test results: patent US8754089B2, “Heterocyclic compounds and their uses” (Amgen Inc., priority 2009, dated 2014)

Biological target: PI3Kδ (Homo sapiens (Human), UniProt O00329)
Assay: PI3Kδ Alphascreen assay
Type: biochemical
Procedure: Full length p110 subunits of PI3k α, β and δ, N-terminally labeled with polyHis tag, were coexpressed with p85 with Baculo virus expression vectors in sf9 insect cells. P110/p85 heterodimers were purified by sequential Ni-NTA, Q-HP, Superdex-100 chromatography. Purified α, β and δ isozymes were stored at −20° C. in 20 mM Tris, pH 8, 0.2M NaCl, 50% glycerol, 5 mM DTT, 2 mM Na cholate. […] The y isozyme was purified by sequential Ni-NTA, Superdex-200, Q-HP chromatography. The γ isozyme was stored frozen at −80° C. in NaH2PO4, pH 8, 0.2M NaCl, 1% ethylene glycol, 2 mM β-mercaptoethanol.
A PI3K Alphascreen® assay (PerkinElmer, Waltham, Mass.) was used to measure the activity of a panel of four phosphoinositide 3-kinases: PI3Kα, PI3Kβ, PI3Kγ, and PI3Kδ. Enzyme reaction buffer was prepared using sterile water (Baxter, Deerfield, Ill.) and 50 mM Tris HCl pH 7, 14 mM MgCl2, 2 mM sodium cholate, and 100 mM NaCl. 2 mM DTT was added fresh the day of the experiment. The Alphascreen buffer was made using sterile water and 10 mM Tris HCl pH 7.5, 150 mM NaCl, 0.10% Tween 20, and 30 mM EDTA. 1 mM DTT was added fresh the day of the experiment. Compound source plates used for this assay were 384-well Greiner clear polypropylene plates containing test compounds at 5 mM and diluted 1:2 over 22 concentrations. Columns 23 and 24 contained only DMSO as these wells comprised the positive and negative controls, respectively. Source plates were replicated by transferring 0.5 uL per well into 384-well Optiplates (PerkinElmer, Waltham, Mass.).
Each PI3K isoform was diluted in enzyme reaction buffer to 2× working stocks. […] PI(4,5)P2 (Echelon Biosciences, Salt Lake City, Utah) was diluted to 10 μM and ATP was diluted to 20 μM. This 2× stock was used in the assays for PI3Kα and PI3Kβ. For assay of PI3Kγ and PI3Kδ, PI(4,5)P2 was diluted to 10 μM and ATP was diluted to 8 μM to prepare a similar 2× working stock. Alphascreen reaction solutions were made using beads from the anti-GST Alphascreen kit (PerkinElmer, Waltham, Mass.). Two 4× working stocks of the Alphascreen reagents were made in Alphascreen reaction buffer. In one stock, biotinylated-IP4 (Echelon Biosciences, Salt Lake City, Utah) was diluted to 40 nM and streptavadin-donor beads were diluted to 80 μg/mL. In the second stock, PIP3-binding protein (Echelon Biosciences, Salt Lake City, Utah) was diluted to 40 nM and anti-GST-acceptor beads were diluted to 80 μg/mL.
10 μL/well of the appropriate substrate 2× stock (containing 20 μM ATP for the PI3Kα and β assays and containing 8 μM ATP for the PI3Kγ and δ assays) was then added to Columns 1-24 of all plates. Plates were then incubated at room temperature for 20 minutes. In the dark, 10 μL/well of the donor bead solution was added to columns 1-24 of the plates to quench the enzyme reaction. The plates were incubated at room temperature for 30 minutes. Still in the dark, 10 μL/well of the acceptor bead solution was added to columns 1-24 of the plates. The plates were then incubated in the dark for 1.5 hours. The plates were read on an Envision multimode Plate Reader (PerkinElmer, Waltham, Mass.) using a 680 nm excitation filter and a 520-620 nm emission filter.

PI3Kδ, sequence (O00329 whole entry): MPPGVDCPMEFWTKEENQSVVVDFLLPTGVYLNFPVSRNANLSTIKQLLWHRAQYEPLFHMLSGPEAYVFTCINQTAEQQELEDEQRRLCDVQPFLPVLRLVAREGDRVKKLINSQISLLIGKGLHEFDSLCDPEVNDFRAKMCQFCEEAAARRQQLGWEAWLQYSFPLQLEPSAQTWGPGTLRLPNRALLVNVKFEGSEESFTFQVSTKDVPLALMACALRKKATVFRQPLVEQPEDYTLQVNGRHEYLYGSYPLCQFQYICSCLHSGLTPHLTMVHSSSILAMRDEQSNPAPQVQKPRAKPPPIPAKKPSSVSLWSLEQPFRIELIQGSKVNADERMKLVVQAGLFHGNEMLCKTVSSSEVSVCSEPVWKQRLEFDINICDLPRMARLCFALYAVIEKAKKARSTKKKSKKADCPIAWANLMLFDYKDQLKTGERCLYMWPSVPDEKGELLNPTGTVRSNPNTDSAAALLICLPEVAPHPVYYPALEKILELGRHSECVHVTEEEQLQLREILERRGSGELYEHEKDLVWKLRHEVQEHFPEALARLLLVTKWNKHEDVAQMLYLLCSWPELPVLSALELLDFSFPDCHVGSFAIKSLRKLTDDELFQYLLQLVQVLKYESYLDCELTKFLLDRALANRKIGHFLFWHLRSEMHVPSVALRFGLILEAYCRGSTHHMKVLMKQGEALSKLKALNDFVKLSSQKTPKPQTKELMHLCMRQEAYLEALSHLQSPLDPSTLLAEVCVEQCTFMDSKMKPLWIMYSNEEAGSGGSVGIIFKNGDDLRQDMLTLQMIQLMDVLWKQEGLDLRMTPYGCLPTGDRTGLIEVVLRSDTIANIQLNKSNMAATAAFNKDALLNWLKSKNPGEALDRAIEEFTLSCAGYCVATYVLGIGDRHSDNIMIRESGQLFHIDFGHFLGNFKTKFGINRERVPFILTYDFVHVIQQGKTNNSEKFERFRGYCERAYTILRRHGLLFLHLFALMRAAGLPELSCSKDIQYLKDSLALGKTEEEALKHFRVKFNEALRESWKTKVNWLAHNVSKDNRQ
PI3Kδ, sequence (P27986 whole entry partner): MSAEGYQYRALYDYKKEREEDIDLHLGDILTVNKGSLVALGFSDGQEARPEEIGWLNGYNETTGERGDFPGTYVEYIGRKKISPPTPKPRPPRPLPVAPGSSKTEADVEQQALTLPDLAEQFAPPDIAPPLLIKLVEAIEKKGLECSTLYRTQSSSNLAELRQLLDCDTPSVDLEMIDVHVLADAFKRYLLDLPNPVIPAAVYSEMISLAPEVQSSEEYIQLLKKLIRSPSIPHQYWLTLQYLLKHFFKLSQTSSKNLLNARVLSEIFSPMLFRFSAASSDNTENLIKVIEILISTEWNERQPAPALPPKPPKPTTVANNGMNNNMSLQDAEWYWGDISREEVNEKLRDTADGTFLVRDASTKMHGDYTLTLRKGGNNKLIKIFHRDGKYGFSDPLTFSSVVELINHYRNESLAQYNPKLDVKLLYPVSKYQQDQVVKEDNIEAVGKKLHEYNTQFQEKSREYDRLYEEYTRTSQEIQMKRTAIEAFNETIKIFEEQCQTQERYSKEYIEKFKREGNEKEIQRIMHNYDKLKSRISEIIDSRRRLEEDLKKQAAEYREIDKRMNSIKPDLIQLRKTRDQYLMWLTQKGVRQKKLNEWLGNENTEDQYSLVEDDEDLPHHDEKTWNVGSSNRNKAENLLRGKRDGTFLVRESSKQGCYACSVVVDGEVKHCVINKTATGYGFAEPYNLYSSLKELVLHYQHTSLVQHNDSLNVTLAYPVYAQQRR

Structure (SMILES)	Ki [nM]
Cc1cccc2nc(C(C)Nc3ncnc(N)c3C#N)c(-c3ccccn3)c(=O)n12 (racemic) [4-amino-6-((1-(6-methyl-4-oxo-3-(2-pyridinyl)-4H-pyrido-[1,2-a]pyrimidin-2-yl)ethyl)amino)-5-pyrimidinecarbonitrile]	10.8
CC(Nc1ncnc(N)c1C#N)c1nc2ccccn2c(=O)c1-c1ccccc1S(C)(=O)=O (racemic) [4-amino-6-((1-(3-(2-(methylsulfonyl)phenyl)-4-oxo-4H-pyrido[1,2-a]pyrimidin-2-yl)ethyl)amino)-5-pyrimidinecarbonitrile]	52.8
C[C@H](Nc1ncnc(N)c1C#N)c1nc2ccccn2c(=O)c1-c1ccccn1 [4-amino-6-(((1S)-1-(4-oxo-3-(2-pyridinyl)-4H-pyrido[1,2-a]pyrimidin-2-yl)ethyl)amino)-5-pyrimidinecarbonitrile]	42.4
Cc1ccccc1-c1c(CSc2ncnc3[nH]cnc23)nc2cccc(C)n2c1=O [6-methyl-3-(2-methylphenyl)-2-((9H-purin-6-yl-sulfanyl)methyl)-4H-pyrido[1,2-a]pyrimidin-4-one]	9710
C[C@@H](Nc1ncnc(N)c1C#N)c1nc2ccccn2c(=O)c1-c1ccccc1S(C)(=O)=O [4-amino-6-(((1R)-1-(3-(2-(methylsulfonyl)phenyl)-4-oxo-4H-pyrido[1,2-a]pyrimidin-2-yl)ethyl)amino)-5-pyrimidinecarbonitrile]	24600
Cc1cccc2nc(Cn3nc(I)c4c(N)ncnc43)c(-c3cccc(F)c3)c(=O)n12 [2-((4-amino-3-iodo-1H-pyrazolo[3,4-d]pyrimidin-1-yl)methyl)-3-(3-fluorophenyl)-6-methyl-4H-pyrido[1,2-a]pyrimidin-4-one]	84.9
Cc1ccnc(-c2c([C@H](C)Nc3ncnc(N)c3C#N)nc3ccccn3c2=O)c1 [4-amino-6-(((1S)-1-(3-(4-methyl-2-pyridinyl)-4-oxo-4H-pyrido[1,2-a]pyrimidin-2-yl)ethyl)amino)-5-pyrimidinecarbonitrile]	230
Cc1cccc2nc(C(C)Nc3ncnc(N)c3C#N)c(-c3ccccc3)c(=O)n12 (racemic) [4-amino-6-((1-(6-methyl-4-oxo-3-phenyl-4H-pyrido[1,2-a]pyrimidin-2-yl)ethyl)amino)-5-pyrimidinecarbonitrile]	12.6
C[C@@H](Nc1ncnc(N)c1C#N)c1nc2ccccn2c(=O)c1-c1cc(F)cc(F)c1 [4-amino-6-(((1R)-1-(3-(3,5-difluorophenyl)-4-oxo-4H-pyrido[1,2-a]pyrimidin-2-yl)ethyl)amino)-5-pyrimidinecarbonitrile]	320000
CC(Nc1ncnc(N)c1C#N)c1nc2ccccn2c(=O)c1-c1ccccn1 (racemic) [4-amino-6-((1-(4-oxo-3-(2-pyridinyl)-4H-pyrido[1,2-a]pyrimidin-2-yl)ethyl)amino)-5-pyrimidinecarbonitrile]	104
Cc1cccc2nc([C@H](C)Nc3ncnc(N)c3C#N)c(-c3ccccn3)c(=O)n12 [4-amino-6-(((1S)-1-(6-methyl-4-oxo-3-(2-pyridinyl)-4H-pyrido[1,2-a]pyrimidin-2-yl)ethyl)amino)-5-pyrimidinecarbonitrile]	21.4
C[C@@H](Nc1ncnc(N)c1C#N)c1nc2ccccn2c(=O)c1-c1cccc(F)c1 [4-Amino-6-(((1R)-1-(3-(3-fluorophenyl)-4-oxo-4H-pyrido[1,2-a]pyrimidin-2-yl)ethyl)amino)-5-pyrimidinecarbonitrile]	1880
C[C@H](Nc1ncnc(N)c1C#N)c1nc2ccccn2c(=O)c1-c1ccccc1S(C)(=O)=O [4-amino-6-(((1S)-1-(3-(2-(methylsulfonyl)phenyl)-4-oxo-4H-pyrido[1,2-a]pyrimidin-2-yl)ethyl)amino)-5-pyrimidinecarbonitrile]	53.7
Cc1cccc2nc([C@@H](C)Nc3ncnc4[nH]cnc34)c(-c3cccc(F)c3)c(=O)n12 [3-(3-fluorophenyl)-6-methyl-2-((1R)-1-(9H-purin-6-ylamino)ethyl)-4H-pyrido[1,2-a]pyrimidin-4-one]	802
C[C@H](Nc1ncnc(N)c1C#N)c1nc2ccccn2c(=O)c1-c1cccc(F)c1 [4-amino-6-(((1S)-1-(3-(3-fluorophenyl)-4-oxo-4H-pyrido[1,2-a]pyrimidin-2-yl)ethyl)amino)-5-pyrimidinecarbonitrile]	15.7
Cc1ccnc(-c2c([C@@H](C)Nc3ncnc(N)c3C#N)nc3ccccn3c2=O)c1 [4-amino-6-(((1R)-1-(3-(4-methyl-2-pyridinyl)-4-oxo-4H-pyrido[1,2-a]pyrimidin-2-yl)ethyl)amino)-5-pyrimidinecarbonitrile]	9270
Cc1ccccc1-c1c(Cn2cnc3c(N)ncnc32)nc2cccc(C)n2c1=O [2-((6-amino-9H-purin-9-yl)methyl)-6-methyl-3-(2-methylphenyl)-4H-pyrido[1,2-a]pyrimidin-4-one]	6280
C[C@@H](Nc1ncnc(N)c1C#N)c1nc2ccccn2c(=O)c1-c1ccccn1 [4-amino-6-(((1R)-1-(4-oxo-3-(2-pyridinyl)-4H-pyrido[1,2-a]pyrimidin-2-yl)ethyl)amino)-5-pyrimidinecarbonitrile]	585
Cc1cccc2nc([C@H](C)Nc3ncnc(N)c3C#N)c(-c3ccccc3)c(=O)n12 [4-amino-6-(((1S)-1-(6-methyl-4-oxo-3-phenyl-4H-pyrido[1,2-a]pyrimidin-2-yl)ethyl)amino)-5-pyrimidinecarbonitrile]	5
Cc1cccc2nc(C(C)Nc3ncnc4[nH]cnc34)c(-c3cccc(F)c3)c(=O)n12 (racemic) [3-(3-fluorophenyl)-6-methyl-2-(1-(9H-purin-6-ylamino)ethyl)-4H-pyrido[1,2-a]pyrimidin-4-one]	27.7
Cc1ccnc(-c2c(C(C)Nc3ncnc(N)c3C#N)nc3ccccn3c2=O)c1 (racemic) [4-amino-6-((1-(3-(4-methyl-2-pyridinyl)-4-oxo-4H-pyrido[1,2-a]pyrimidin-2-yl)ethyl)amino)-5-pyrimidinecarbonitrile]	471
Cc1cccc2nc([C@H](C)Nc3ncnc4[nH]cnc34)c(-c3cccc(F)c3)c(=O)n12 [3-(3-fluorophenyl)-6-methyl-2-((1S)-1-(9H-purin-6-ylamino)ethyl)-4H-pyrido[1,2-a]pyrimidin-4-one]	23.1
Cc1cccc2nc(C(C)Nc3ncnc(N)c3C#N)c(-c3ccccc3)c(=O)n12 (single isomer, unassigned)	1180
Cc1cccc2nc(CNc3ncnc4[nH]cnc34)c(-c3cccc(F)c3)c(=O)n12 [3-(3-Fluorophenyl)-6-methyl-2-((9H-purin-6-ylamino)methyl)-4H-pyrido[1,2-a]pyrimidin-4-one]	711
Cc1cccc2nc([C@@H](C)Nc3ncnc(N)c3C#N)c(-c3ccccn3)c(=O)n12 [4-amino-6-(((1R)-1-(6-methyl-4-oxo-3-(2-pyridinyl)-4H-pyrido[1,2-a]pyrimidin-2-yl)ethyl)amino)-5-pyrimidine-carbonitrile]	10700
CC(Nc1ncnc(N)c1C#N)c1nc2ccccn2c(=O)c1-c1cc(F)cc(F)c1 (racemic) [4-Amino-6-((1-(3-(3,5-difluorophenyl)-4-oxo-4H-pyrido[1,2-a]pyrimidin-2-yl)ethyl)amino)-5-pyrimidinecarbonitrile]	89
CC(Nc1ncnc(N)c1C#N)c1nc2ccccn2c(=O)c1-c1cccc(F)c1 (racemic) [4-amino-6-((1-(3-(3-fluorophenyl)-4-oxo-4H-pyrido[1,2-a]pyrimidin-2-yl)ethyl)amino)-5-pyrimidinecarbonitrile]	57.1
CC(Nc1ncnc(N)c1C#N)c1c(-c2cc(F)cc(F)c2)c(=O)c2cc(F)ccc2n1C (centres unmarked) [4-amino-6-((1-(3-(3,5-difluorophenyl)-6-fluoro-1-methyl-4-oxo-1,4-dihydro-2-quinolinyl)ethyl)amino)-5-pyrimidinecarbonitrile]	33
C[C@H](Nc1ncnc(N)c1C#N)c1nc2ccccn2c(=O)c1-c1cc(F)cc(F)c1 [4-amino-6-(((1S)-1-(3-(3,5-difluorophenyl)-4-oxo-4H-pyrido[1,2-a]pyrimidin-2-yl)ethyl)amino)-5-pyrimidinecarbonitrile]	21.6
